Where two headings read alike, the source gives them in different places.
Key:
[1] = system: RSV subgenomic replicon 395 HeLa; experiment: RSV subgenomic replicon assay (Renilla luciferase); format: cell-based; conditions: human respiratory syncytial virus, 168 h
human PIV type 3 = experiment: Parainfluenza Virus-3 (PIV-3) plaque assay; format: cell-based
human metapneumovirus = experiment: Human Metapneumovirus (hMPV) TCID50 assay; format: cell-based
RSV polymerase = RSV polymerase (Human respiratory syncytial virus A, UniProt P28887); experiment: Standard RSV polymerase assay; format: biochemical
Chain of RSV polymerase (P28887 whole entry, looked up): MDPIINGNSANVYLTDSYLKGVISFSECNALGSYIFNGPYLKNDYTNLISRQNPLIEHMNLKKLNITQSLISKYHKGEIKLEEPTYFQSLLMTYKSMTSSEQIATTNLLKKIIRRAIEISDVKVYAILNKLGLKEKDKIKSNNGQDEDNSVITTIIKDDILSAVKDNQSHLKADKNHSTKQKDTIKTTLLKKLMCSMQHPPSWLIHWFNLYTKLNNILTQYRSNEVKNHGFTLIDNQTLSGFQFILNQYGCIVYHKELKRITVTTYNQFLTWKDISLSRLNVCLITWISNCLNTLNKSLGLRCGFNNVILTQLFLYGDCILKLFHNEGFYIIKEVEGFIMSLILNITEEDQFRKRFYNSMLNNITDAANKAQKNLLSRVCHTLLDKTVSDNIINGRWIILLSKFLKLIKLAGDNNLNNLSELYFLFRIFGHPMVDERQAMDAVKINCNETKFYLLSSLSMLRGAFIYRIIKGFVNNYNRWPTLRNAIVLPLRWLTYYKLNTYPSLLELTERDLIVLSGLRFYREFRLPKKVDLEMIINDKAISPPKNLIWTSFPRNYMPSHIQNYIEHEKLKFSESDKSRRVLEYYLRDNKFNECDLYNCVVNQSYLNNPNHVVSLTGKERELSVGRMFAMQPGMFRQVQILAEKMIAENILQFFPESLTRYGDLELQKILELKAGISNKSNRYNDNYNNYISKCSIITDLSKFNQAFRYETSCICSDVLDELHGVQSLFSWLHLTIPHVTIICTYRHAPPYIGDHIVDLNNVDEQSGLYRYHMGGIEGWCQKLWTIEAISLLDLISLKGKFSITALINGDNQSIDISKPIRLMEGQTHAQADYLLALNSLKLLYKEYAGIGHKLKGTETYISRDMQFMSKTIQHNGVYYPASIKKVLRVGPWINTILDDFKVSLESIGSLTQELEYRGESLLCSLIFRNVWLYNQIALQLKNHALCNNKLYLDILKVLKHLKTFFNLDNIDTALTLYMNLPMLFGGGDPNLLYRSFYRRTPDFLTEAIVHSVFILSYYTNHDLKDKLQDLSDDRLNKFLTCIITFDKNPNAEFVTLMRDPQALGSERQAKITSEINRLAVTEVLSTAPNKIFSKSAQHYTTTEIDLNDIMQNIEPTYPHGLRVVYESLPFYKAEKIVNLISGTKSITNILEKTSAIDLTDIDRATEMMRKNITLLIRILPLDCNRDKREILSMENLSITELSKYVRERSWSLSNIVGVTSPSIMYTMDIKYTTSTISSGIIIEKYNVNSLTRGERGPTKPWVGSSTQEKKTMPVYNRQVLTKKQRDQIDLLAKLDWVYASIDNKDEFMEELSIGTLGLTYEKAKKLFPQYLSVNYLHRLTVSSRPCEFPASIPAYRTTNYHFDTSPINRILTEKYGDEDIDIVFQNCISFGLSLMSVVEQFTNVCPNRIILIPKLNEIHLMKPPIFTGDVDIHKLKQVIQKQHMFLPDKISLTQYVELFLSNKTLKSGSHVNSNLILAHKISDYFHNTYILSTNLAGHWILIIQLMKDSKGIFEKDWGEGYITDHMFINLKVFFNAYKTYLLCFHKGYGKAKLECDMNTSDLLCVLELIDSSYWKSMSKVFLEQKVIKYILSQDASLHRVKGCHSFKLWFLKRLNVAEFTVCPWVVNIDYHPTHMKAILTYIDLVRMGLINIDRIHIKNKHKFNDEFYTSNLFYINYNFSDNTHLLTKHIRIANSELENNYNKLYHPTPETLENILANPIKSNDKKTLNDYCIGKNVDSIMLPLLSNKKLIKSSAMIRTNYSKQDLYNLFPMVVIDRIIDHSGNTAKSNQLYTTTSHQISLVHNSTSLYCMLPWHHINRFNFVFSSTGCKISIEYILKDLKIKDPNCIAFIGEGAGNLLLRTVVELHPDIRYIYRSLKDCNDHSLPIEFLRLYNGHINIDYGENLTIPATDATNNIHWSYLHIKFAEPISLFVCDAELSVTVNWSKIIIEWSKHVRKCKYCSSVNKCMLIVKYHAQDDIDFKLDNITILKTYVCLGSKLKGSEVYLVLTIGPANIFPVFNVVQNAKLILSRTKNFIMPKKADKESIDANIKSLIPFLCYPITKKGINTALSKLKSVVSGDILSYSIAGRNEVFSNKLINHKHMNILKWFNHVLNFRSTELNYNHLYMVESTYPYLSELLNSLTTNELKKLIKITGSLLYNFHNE
Description: Standard RSV polymerase assays were conducted in the presence of 3 μL extract of RSV-infected cells in a reaction buffer containing 50 mM tris-acetate pH 8, 120 mM K-acetate, 4.5 mM MgCl2, 5% glycerol, 2 mM EDTA, 50 ug/mL BSA, and 3 mM DTT. Varying concentration of test compounds were used to initiate RNA synthesis for 120 mins at 30° C., and radioactive 33P GTP (15 uCi) was used as tracer. The reaction was stopped by adding 50 mM EDTA, and RNA samples were purified through G-50 size exclusion spin columns and phenol-chloroform extraction. The radio-labeled RNA products were resolved by electrophoresis on a 6% polyacrylamide TBE gel, and visualized and quantitated after being exposed on a phosphorlmager screen. Polymerase inhibition experiments (IC50) were conducted the same way in the presence of increasing concentration of test compounds.

[2] = RSV replicon 395 HeLa cells, 7 days incubation, compounds listed in Table A1, read-out: EC50
[3] = MA104, MA-104 cells, 72 h infection, viral load by plaque assay, Table B1, read-out: EC50 against PIV-3
[4] = 168 h, LLC-MK2 cells, 7 days infection, viral load by TCID50 assay, Table C1, read-out: EC50 against human metapneumovirus
[5] = RSV replicon 395 HeLa cells, 7 days incubation, compounds listed in Table A2 and other tested compounds, read-out: EC50

SMILES | EC50 (human PIV type 3; [3]) | EC50 (human metapneumovirus; [4]) | IC50 (RSV polymerase) | EC50 [1, 5] | other results
[N-]=[N+]=NC[C@]1(CO)O[C@@H](n2ccc(N)nc2=O)[C@H](F)[C@@H]1O [Compound 2A] | < 20 µM | < 20 µM | – | – | EC50 [1, 2]: < 1 µM
[N-]=[N+]=NC[C@]1(COP(=O)(O)OP(=O)(O)OP(=O)(O)O)O[C@@H](n2ccc(=O)[nH]c2=O)[C@H](F)[C@@H]1O [Compound 3A] | – | – | < 1 µM | – | –
[N-]=[N+]=NC[C@]1(COP(=O)(O)OP(=O)(O)OP(=O)(O)O)O[C@@H](n2ccc(N)nc2=O)[C@H](F)[C@@H]1O [Compound 4A] | – | – | < 1 µM | – | –
NC[C@]1(COP(=O)(O)OP(=O)(O)OP(=O)(O)O)O[C@@H](n2ccc(=O)[nH]c2=O)[C@H](F)[C@@H]1O [Compound 5A] | – | – | 1 to 50 µM | – | –
NC[C@]1(COP(=O)(O)OP(=O)(O)OP(=O)(O)O)O[C@@H](n2ccc(N)nc2=O)[C@H](F)[C@@H]1O [Compound 6A] | – | – | 1 to 50 µM | – | –
[N-]=[N+]=NC[C@]1(CO)O[C@@H](n2cnc3c(=O)[nH]c(N)nc32)[C@H](F)[C@@H]1O [Compound 7A] | – | < 20 µM | – | 1 to 50 µM | –
[N-]=[N+]=NC[C@]1(COP(=O)(O)OP(=O)(O)OP(=O)(O)O)O[C@@H](n2cnc3c(N)ncnc32)[C@H](F)[C@@H]1O [Compound 11A] | – | – | < 1 µM | – | –
NC[C@]1(COP(=O)(O)OP(=O)(O)OP(=O)(O)O)O[C@@H](n2cnc3c(N)ncnc32)[C@H](F)[C@@H]1O [Compound 12A] | – | – | < 1 µM | – | –
CC(C)C(=O)OC[C@@]1(CN=[N+]=[N-])O[C@@H](n2ccc(N)nc2=O)[C@H](F)[C@@H]1OC(=O)C(C)C [Compound 14A] | < 20 µM | < 20 µM | – | – | EC50 [1, 2]: < 1 µM
CCC(=O)OC[C@@]1(CN=[N+]=[N-])O[C@@H](n2ccc(N)nc2=O)[C@H](F)[C@@H]1OC(=O)CC [Compound 15A] | < 20 µM | < 20 µM | – | – | EC50 [1, 2]: < 1 µM
CCCCC(=O)OC[C@@]1(CN=[N+]=[N-])O[C@@H](n2ccc(N)nc2=O)[C@H](F)[C@@H]1OC(=O)CCCC [Compound 16A] | < 20 µM | < 20 µM | – | – | EC50 [1, 2]: < 1 µM
CC(C)OC(=O)OCOP(=O)(OCOC(=O)OC(C)C)OC[C@@]1(CN=[N+]=[N-])O[C@@H](n2ccc(=O)[nH]c2=O)[C@H](F)[C@@H]1O [Compound 17A] | < 20 µM | < 20 µM | – | 1 to 50 µM | –
CC(C)OC(=O)[C@H](C)NP(=O)(OC[C@@]1(CN=[N+]=[N-])O[C@@H](n2ccc(=O)[nH]c2=O)[C@H](F)[C@@H]1O)Oc1ccccc1 (stereo partly drawn) [Compound 18A] | – | – | – | – | EC50 ([1]; HeLa): 1 to 50 µM; EC50 (human PIV type 3; MA104, 72 h, read-out: EC50 against PIV-3): < 20 µM; EC50 (human metapneumovirus; LLC-MK2, 168 h, read-out: EC50 against human metapneumovirus): < 20 µM
CC(C)(C)C(=O)SCCOP(=O)(OCCSC(=O)C(C)(C)C)OC[C@@]1(CN=[N+]=[N-])O[C@@H](n2ccc(=O)[nH]c2=O)[C@H](F)[C@@H]1O [Compound 19A] | < 20 µM | < 20 µM | – | 1 to 50 µM | –
CC(C)OC(=O)[C@H](C)NP(=O)(N[C@@H](C)C(=O)OC(C)C)OC[C@@]1(CN=[N+]=[N-])O[C@@H](n2ccc(=O)[nH]c2=O)[C@H](F)[C@@H]1O [Compound 20A] | – | – | – | 1 to 50 µM | –
CC(C)(CO)C(=O)SCCOP(=O)(OCCSC(=O)C(C)(C)CO)OC[C@@]1(CN=[N+]=[N-])O[C@@H](n2ccc(=O)[nH]c2=O)[C@H](F)[C@@H]1O [Compound 21A] | – | – | – | – | EC50 ([1]; HeLa): 1 to 50 µM
CC(C)OC(=O)C(C)NP(=O)(OCCSC(=O)C(C)(C)CO)OC[C@@]1(CN=[N+]=[N-])O[C@@H](n2ccc(=O)[nH]c2=O)[C@H](F)[C@@H]1O (stereo partly drawn) [Compound 22A] | – | – | – | 1 to 50 µM | –
CC(C)OC(=O)CCc1ccccc1OP(=O)(N[C@@H](C)C(=O)OC(C)C)OC[C@@]1(CN=[N+]=[N-])O[C@@H](n2ccc(=O)[nH]c2=O)[C@H](F)[C@@H]1O (stereo partly drawn) [Compound 23A] | – | – | – | – | EC50 ([1]; HeLa): 1 to 50 µM
CC(C)(C)C(=O)OCOP(=O)(OCOC(=O)C(C)(C)C)OC[C@@]1(CN=[N+]=[N-])O[C@@H](n2ccc(=O)[nH]c2=O)[C@H](F)[C@@H]1O [Compound 28A] | < 20 µM | < 20 µM | – | 1 to 50 µM | –

From patent US10696708B2, “Substituted nucleosides, nucleotides and analogs thereof” (Janssen BioPharma, Inc., priority 2013, dated 2020)
